Reference: BindingDB's records for doi:10.1073/pnas.74.9.3805 (1977)
Values joined by “and” are separate entries in the source; they are usually repeats but may differ in a detail not shown here. Equal entries are not always repeated.

Target: Gamma-aminobutyric acid receptor subunit alpha-1 (Rattus norvegicus, UniProt P62813)
Sequence (P62813 whole entry): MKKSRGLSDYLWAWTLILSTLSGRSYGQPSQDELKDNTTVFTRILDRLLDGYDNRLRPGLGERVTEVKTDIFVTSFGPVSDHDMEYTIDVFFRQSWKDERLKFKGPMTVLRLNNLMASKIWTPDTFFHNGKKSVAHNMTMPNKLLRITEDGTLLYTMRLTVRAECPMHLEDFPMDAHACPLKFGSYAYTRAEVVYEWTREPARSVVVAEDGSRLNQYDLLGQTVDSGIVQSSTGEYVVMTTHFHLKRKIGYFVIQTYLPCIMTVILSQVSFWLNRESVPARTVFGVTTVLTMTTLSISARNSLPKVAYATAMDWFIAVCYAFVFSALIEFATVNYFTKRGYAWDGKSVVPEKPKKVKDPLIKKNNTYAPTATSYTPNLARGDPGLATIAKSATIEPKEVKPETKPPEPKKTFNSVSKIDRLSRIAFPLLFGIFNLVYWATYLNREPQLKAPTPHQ

O=C1CN=C(c2ccccc2Cl)c2cc([N+](=O)[O-])ccc2N1 [5-(2-chlorophenyl)-7-nitro-1,3-dihydro-2H-1,4-benzodiazepin-2-one]
Ki: 5.08 µM and 2.9 µM and 7.9 µM
